Measured values taken from PubChem BioAssay AID1918937 (Molecular Pharmacology Branch, DTP, NCI, 2023).

System: 521955-158-R2-J5-PDC complex spheroid viability
Assay: Anticancer human tumor 521955-158-R2-J5-PDC patient-derived pancreatic carcinoma cell line growth inhibition
Details: for IC50: curve of first compound; for viability, T/C: stronger effect = lower value
Excerpt: Multicellular complex tumor spheroid response to LSD1 Inhibitor Iadademstat in combination with a variety of drugs and investigational agents in selected tumor cell lines
The current study was undertaken to assess response to LSD1 inhibitors in combination with standard-of-care drugs and investigational agents in solid tumor complex spheroid models as well as in the K-562 leukemia. Complex spheroids include a stromal component modeled by human endothelial cells (HUVEC) and fibroblasts modeled by human mesenchymal stem cells (MSCs). The concentration ranges selected for each drug and investigational agent were based upon clinically achievable concentrations if the clinical Cmax of the agent was known.
Compounds. The drugs and investigational agents used in this study are listed on Table 1. All of the agents used, including staurosporine (NSC755774) and gemcitabine (NSC613327), were obtained from the Developmental Therapeutics Program, NCI. FDA-approved anticancer drugs are available from the NCI at http://dtp.nci.nih.gov/branches/dscb/oncology_drugset_explanation.html. Drugs and investigational agents were >95% pure by proton nuclear magnetic resonance (NMR) and liquid chromatography/mass spectrometry (LC/MS). Stock solutions were prepared at 400x in DMSO, stored at -70 degrees C, and diluted in fresh medium prior to their use. The final concentration of DMSO in cell culture wells never exceeded 0.25% (v/v). The FDA-approved anticancer drug set is available from the Developmental Therapeutics Program at https://dtp.cancer.gov/organization/dscb/obtaining/available_plates.htm. All drugs and investigational agents were tested over a range starting from a high concentration at or near the clinical Cmax and decreasing in half-log increments. If the clinical Cmax for an agent had not been determined, the highest concentration tested was 10 microM.
Cell Lines. The patient-derived cancer cell (PDC) lines: 292921-168-R-J2-PDC, K24384-001-R-PDC, and 521955-158-R2-J5-PDC pancreatic carcinomas, 556581-035-R-J1 ovarian carcinoma, 324938-238-R-J1-PDC, 855422-203-R-J1-PDC and 883617-216-R-J1-PDC urothelial bladder carcinomas, 743489-274-T-PDC renal cell carcinoma, 138582-R-J1 Merkel cell tumor, K60290-347-R-J1 and K57222-313-R-J1-PDC glioblastomas, 653999-131-R-J2-PDC, LG0703-F948-PDC, and 349418-098-R-PDC non-small cell lung carcinomas, 885512-296-R-J2-PDC, 171881-019-R-J1-PDC breast carcinomas and 186277-243-T-J2-PDC and 233499-124-R-J2-PDC colon carcinomas were obtained from the NCI Patient-Derived Models Repository (PDMR, https://pdmr.cancer.gov). The established cell lines NCI/ADR-RES (RRID:CVCL_14520 and OVCAR-5 (RRID:CVCL_1628) ovarian carcinomas, 786-O (RRID:CVCL_1051) and A498 (RRID:CVCL_A498) renal cell carcinoma, NCI-H211 (ATCC, cat. CRL-5824; RRID:CVCL_1529), NCI-H196 (ATCC, cat. CRL-5823, RRID:CVCL_1509), SW 1271 (ATCC, cat. CRL-2177, RRID:CVCL_1716) and NCI-H1876 (ATCC, cat. CRL-5902, RRID:CVCL_1503) small cell lung carcinomas, MDA-MB-231 (RRID:CVCL_0062) and MDA-MB-468 (RRID:CVCL_0419)breast carcinomas (10-12). Pooled donor human umbilical vein endothelial cells (HUVEC, Lonza, cat. CC-2519) and human mesenchymal stem cells (hMSC, Lonza, cat. PT-2501) were purchased from Lonza (Walkersville, MD).
Cell Culture. All cells were maintained in an incubator at 37 degrees C and 5% CO2 with 95% humidity. The PDC lines were cultured according to standard operating procedures established by the NCI PDMR (https://pdmr.cancer.gov). Briefly all PDCs were thawed and cultured in Matrigel-coated flasks prepared with a working solution of 1X Ham's F-12 nutrient mix, without supplementation (Invitrogen, Waltham, MA, cat. 11765054), 100 U/mL penicillin-streptomycin (Invitrogen, cat. 15140122), and 2.5% Matrigel (Corning Inc., Corning, NY, cat. 354248) for the first three passages. […]

[1] = second compound 0.1 µM, first compound 0.00316 µM
[2] = second compound 0.1 µM, first compound 0.01 µM
[3] = second compound 0.1 µM, first compound 0.0316 µM
[4] = second compound 0.1 µM, first compound 0.1 µM
[5] = second compound 0.316 µM, first compound 0.00316 µM
[6] = second compound 0.316 µM, first compound 0.01 µM
[7] = second compound 0.316 µM, first compound 0.0316 µM
[8] = second compound 0.316 µM, first compound 0.1 µM
[9] = second compound 1 µM, first compound 0.00316 µM
[10] = second compound 1 µM, first compound 0.01 µM
[11] = second compound 1 µM, first compound 0.0316 µM
[12] = second compound 1 µM, first compound 0.1 µM
[13] = second compound 3.16 µM, first compound 0.00316 µM
[14] = second compound 3.16 µM, first compound 0.01 µM
[15] = second compound 3.16 µM, first compound 0.0316 µM
[16] = second compound 3.16 µM, first compound 0.1 µM
[17] = second compound 10 µM, first compound 0.00316 µM
[18] = second compound 10 µM, first compound 0.01 µM
[19] = second compound 10 µM, first compound 0.0316 µM
[20] = second compound 10 µM, first compound 0.1 µM
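Note: spheroids exposed to agents for seven days.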
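Throughout, for viability, T/C: percent of DMSO vehicle control luminescence viability.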

Compound: CC[C@@]1(O)C(=O)OCc2c1cc1n(c2=O)Cc2cc3c(CN(C)C)c(O)ccc3nc2-1 + NC1CC1c1ccc(-c2cccc(O)c2)cc1
- IC50 (second compound 0.1 µM): 6.03 nM
- IC50 (second compound 0.316 µM): 6.63 nM
- IC50 (second compound 1 µM): 6.15 nM
- IC50 (second compound 3.16 µM): 6.19 nM
- IC50 (second compound 10 µM): 6.25 nM
- viability, T/C (second compound 0.1 µM, first compound 0.000316 µM): 97.3%
- viability, T/C (second compound 0.1 µM, first compound 0.001 µM): 106%
- viability, T/C [1]: 77.3%
- viability, T/C [2]: 28.3%
- viability, T/C [3]: 15.6%
- viability, T/C [4]: 11.7%
- viability, T/C (second compound 0.316 µM, first compound 0.000316 µM): 94.8%
- viability, T/C (second compound 0.316 µM, first compound 0.001 µM): 94.9%
- viability, T/C [5]: 80.5%
- viability, T/C [6]: 33.1%
- viability, T/C [7]: 14.6%
- viability, T/C [8]: 13.1%
- viability, T/C (second compound 1 µM, first compound 0.000316 µM): 80.2%
- viability, T/C (second compound 1 µM, first compound 0.001 µM): 93.3%
- viability, T/C [9]: 78.2%
- viability, T/C [10]: 29.1%
- viability, T/C [11]: 16.4%
- viability, T/C [12]: 12.7%
- viability, T/C (second compound 3.16 µM, first compound 0.000316 µM): 83%
- viability, T/C (second compound 3.16 µM, first compound 0.001 µM): 86.8%
- viability, T/C [13]: 71.9%
- viability, T/C [14]: 33.8%
- viability, T/C [15]: 18.5%
- viability, T/C [16]: 12.2%
- viability, T/C (second compound 10 µM, first compound 0.000316 µM): 103%
- viability, T/C (second compound 10 µM, first compound 0.001 µM): 92.3%
- viability, T/C [17]: 68.7%
- viability, T/C [18]: 37.7%
- viability, T/C [19]: 21.1%
- viability, T/C [20]: 19.7%

Compound: COc1cc(C2c3cc4c(cc3C(OC3OC5COC(C)OC5C(O)C3O)C3COC(=O)C23)OCO4)cc(OC)c1O (stereo not given) + NC1CC1c1ccc(-c2cccc(O)c2)cc1
- IC50 (second compound 0.1 µM): 198 nM
- IC50 (second compound 0.316 µM): 227 nM
- IC50 (second compound 1 µM): 249 nM
- IC50 (second compound 3.16 µM): 181 nM
- IC50 (second compound 10 µM): 265 nM
- viability, T/C (second compound 0.1 µM, first compound 0.00949 µM): 86.6%
- viability, T/C (second compound 0.1 µM, first compound 0.03 µM): 94.8%
- viability, T/C (second compound 0.1 µM, first compound 0.0949 µM): 66.2%
- viability, T/C (second compound 0.1 µM, first compound 0.3 µM): 39.9%
- viability, T/C (second compound 0.1 µM, first compound 0.949 µM): 23%
- viability, T/C (second compound 0.1 µM, first compound 3 µM): 15.3%
- viability, T/C (second compound 0.316 µM, first compound 0.00949 µM): 87.3%
- viability, T/C (second compound 0.316 µM, first compound 0.03 µM): 83.6%
- viability, T/C (second compound 0.316 µM, first compound 0.0949 µM): 66.3%
- viability, T/C (second compound 0.316 µM, first compound 0.3 µM): 44.6%
- viability, T/C (second compound 0.316 µM, first compound 0.949 µM): 27.8%
- viability, T/C (second compound 0.316 µM, first compound 3 µM): 19.2%
- viability, T/C (second compound 1 µM, first compound 0.00949 µM): 84.2%
- viability, T/C (second compound 1 µM, first compound 0.03 µM): 87.2%
- viability, T/C (second compound 1 µM, first compound 0.0949 µM): 64%
- viability, T/C (second compound 1 µM, first compound 0.3 µM): 47.1%
- viability, T/C (second compound 1 µM, first compound 0.949 µM): 30.9%
- viability, T/C (second compound 1 µM, first compound 3 µM): 20.2%
- viability, T/C (second compound 3.16 µM, first compound 0.00949 µM): 89.4%
- viability, T/C (second compound 3.16 µM, first compound 0.03 µM): 88.5%
- viability, T/C (second compound 3.16 µM, first compound 0.0949 µM): 53.8%
- viability, T/C (second compound 3.16 µM, first compound 0.3 µM): 44.4%
- viability, T/C (second compound 3.16 µM, first compound 0.949 µM): 30.3%
- viability, T/C (second compound 3.16 µM, first compound 3 µM): 19.8%
- viability, T/C (second compound 10 µM, first compound 0.00949 µM): 95.9%
- viability, T/C (second compound 10 µM, first compound 0.03 µM): 83.6%
- viability, T/C (second compound 10 µM, first compound 0.0949 µM): 67.5%
- viability, T/C (second compound 10 µM, first compound 0.3 µM): 49.8%
- viability, T/C (second compound 10 µM, first compound 0.949 µM): 30.6%
- viability, T/C (second compound 10 µM, first compound 3 µM): 27%

Compound: Nc1ncn(C2CC(O)C(CO)O2)c(=O)n1 (stereo not given) + NC1CC1c1ccc(-c2cccc(O)c2)cc1
- IC50 (second compound 0.1 µM): > 1000 nM
- IC50 (second compound 0.316 µM): > 1000 nM
- IC50 (second compound 1 µM): > 1000 nM
- IC50 (second compound 3.16 µM): > 1000 nM
- IC50 (second compound 10 µM): > 1000 nM
- viability, T/C [1]: 89.9%
- viability, T/C [2]: 81.6%
- viability, T/C [3]: 83.7%
- viability, T/C [4]: 76.3%
- viability, T/C (second compound 0.1 µM, first compound 0.316 µM): 58.7%
- viability, T/C (second compound 0.1 µM, first compound 1 µM): 52.4%
- viability, T/C [5]: 78.3%
- viability, T/C [6]: 89.6%
- viability, T/C [7]: 101%
- viability, T/C [8]: 73.4%
- viability, T/C (second compound 0.316 µM, first compound 0.316 µM): 65.5%
- viability, T/C (second compound 0.316 µM, first compound 1 µM): 53.1%
- viability, T/C [9]: 84.1%
- viability, T/C [10]: 91.2%
- viability, T/C [11]: 86.6%
- viability, T/C [12]: 76.9%
- viability, T/C (second compound 1 µM, first compound 0.316 µM): 68.8%
- viability, T/C (second compound 1 µM, first compound 1 µM): 59.8%
- viability, T/C [13]: 80.9%
- viability, T/C [14]: 83.9%
- viability, T/C [15]: 82.2%
- viability, T/C [16]: 79%
- viability, T/C (second compound 3.16 µM, first compound 0.316 µM): 76%
- viability, T/C (second compound 3.16 µM, first compound 1 µM): 65.1%
- viability, T/C [17]: 87.7%
- viability, T/C [18]: 94%
- viability, T/C [19]: 95.9%
- viability, T/C [20]: 80.7%
- viability, T/C (second compound 10 µM, first compound 0.316 µM): 75.5%
- viability, T/C (second compound 10 µM, first compound 1 µM): 67.4%
